Tests used:
Format in all cases: cell-based
[1] = ATP cell viability assay (CellTiter-Glo) cytotoxicity; details: human
Source text: HepG2 (hepatic) and Caco-2 (intestinal) cells were purchased from American Type Tissue Culture (ATCC; USA) and maintained in Dulbecco's modified eagle's medium (DMEM; Sigma; Dorest, Uk) supplemented with 10% fetal bovine serum (FBS; Bio-Whittaker, Berkshire, Uk) for HepG2 and 15% FBS for Caco-2. CEM (lymphocyte) and THP-1 (monocyte) cells were purchased from European Collection of Cell Culture (ECACC; Porton Down, Uk) and grown in RPMI-1640 (Sigma; Dorest, Uk) supplemented with 10% FBS. All cell lines were incubated at 37° C. and 5% CO2 and for adherent cells (HepG2 and Caco-2) were routinely sub-cultured every 4 days when 95% confluent. Suspension cells (CEM and THP-1) were routinely sub-cultured when a density of 1×10^6 cells/ml was achieved. Cell count and viability was determined by Trypan Blue exclusion assay.
HepG2, Caco-2, THP-1, CEM and A-THP-1 cells were separately seeded at a density of 2.5×10^4/100 μl in their appropriate media into each well of a 96 well plate (Nunclon™, Denmark) and incubated for 24 hours at 37° C. and 5% CO2. […]
Prior to starting viability assays, all reagents were made fresh and in accordance to manufacturer's instructions and allowed to equilibrate to room temperature immediately before use. […] Luminescence was then measured using a Tecan Genios plate reader (Tecan; Austria).

[2] = as above; details: human, THP-1 (monocyte) cells
Method: (§1) The same procedure was followed for each individual excipient (23 samples) with concentrations range of 1 μM to 1 M.
(§2) Prior to starting viability assays, all reagents were made fresh and in accordance to manufacturer's instructions and allowed to equilibrate to room temperature immediately before use. After 24 hours incubation, 96 well plates were removed from the incubator and the plate and its contents allowed too equilibrate to room temperature for approximately 30 minutes. After 30 minutes, 80 μl of media was aspirated from each individual well and 20 μl CellTiter-Glo® Reagent (Promega, UK) was added to the remaining media and cells. The contents were then mixed for 2 minutes on an orbital shaker to induce cell lysis. The plate was then further incubated at room temperature for 10 minutes to stabilise luminescent signal. Luminescence was then measured using a Tecan Genios plate reader (Tecan; Austria).

[3] = as above; details: human, A-THP-1 (PMA-activated THP-1, macrophage like) cells
Method: Cells were then incubated at 37° C. and 5% CO2 for 7 days prior to use to allow differentiation from monocyte to macrophage like cells.
as §1, §2

HIVIIIB in MT4 cells = assay: Inhibition of cultured HIV-IIIB in MT4 cells (MTT assay); details: Human immunodeficiency virus 1, 120 h, 70% loaded, 5 days, read-out: IC50 (nM), Table 11
Method: HIVIIIB and the human T-cell line, MT4, were supplied by the National Institute for Biological Standards and Control (NIBSC), the Centre for AIDS Reagents (CFAR: Hertfordshire, Uk). MT4 cells were grown and routinely maintained in RPMI-1640 (Sigma; Dorest, Uk) supplemented with 10% fetal bovine serum (FBS; Bio-Whittaker, Berkshire, Uk) at 37° C. and 5% CO2 and sub-cultured every 3 days. Cell counts and viability was determined by Trypan Blue exclusion using a disposable plastic haemocytometer (Labtech International Ltd, UK). HIVIIIB was propagated by passage through MT4 cells in RPMI-1640 and 10% FBS for 12 days and a subsequent multiplicity of infection (MOI) was determined by MTT assay.
MT4 cells were dispensed into 50 ml falcon tubes and centrifuged at 2000 rpm and 4° C. for 5 minutes. The supernatant was aspirated and the resulting pellet resuspended to a cell density of 1×10^5/ml in RPMI 1640 supplemented with 10% FBS and 1 ml of viral isolate (M.O.I 0.001). After further centrifugation for 5 minutes at 2000 rpm, the MT4/HIVIIIB pellet was incubated at 37° C. and 5% CO2 for 2 hours. […]
Following incubation for 5 days of MT4/HIVIIIB with nano formulated EFV at 37° C. and 5% CO2. […] Absorbance was read at 570 nm on a plate reader (Tecan Magellan, Austria).

SMILES: O=C1Nc2ccc(Cl)cc2[C@@](C#CC2CC2)(C(F)(F)F)O1 [Aqueous solution, efavirenz]
- IC50 at 24 h ([1]; CEM (lymphocyte) cells): 40 µM
- IC50 at 24 h ([1]; HepG2 (hepatic) cells): 33 µM
- IC50 at 24 h [2]: 29 µM
- IC50 at 24 h [3]: 29 µM
- IC50 (HIVIIIB in MT4 cells): 71 nM

— patent US9498438B2 (The University of Liverpool, priority 2011, dated 2016)
